# In patent US20260014144A1, “USE OF OV[…] PHARMACEUTICAL COMPOSITION THEREOF IN PREVENTION AND TREATMENT OF RENAL FIBROSIS” (ZHUJIANG HOSPITAL OF SOUTHERN MEDICAL UNIVERSITY, priority 2022, published 2026):
# Structures can show the parent of a compound that is named as a salt.
# What was measured:
# [1] = test system: ischemia-reperfusion injury (IRI) RF animal model; assay: Therapeutic effect of ACT004 in ischemia-reperfusion injury (IRI) renal fibrosis mouse model; type: in vivo; conditions: IRI mice
# Experimental: (§1) Sixty 8-week-old C57 mice (SPF grade) were supplied by the Laboratory Animal Center of Zhujiang Hospital, Southern Medical University, Guangzhou. Before the experiment, the animals were acclimated to the indoor environment for 7 days at a room temperature of 18-22° C. and a relative humidity of 65%. All mice had free access to water and were fed with regular feed (protein content: 3.14 mg/g).
# Method for constructing IRI model: Mice were anesthetized intraperitoneally with tribromoethanol. An abdominal midline incision or dorsal incision was made. The left renal vein was isolated, while the renal artery was clamped using an arterial clip. The mice were placed on a constant-temperature pad at 37.5° C. for 30 min, and the incision was covered with PBS-moistened gauze. After 30 min, the arterial clip was released, and the abdomen was closed after the recovery of renal congestion was observed. Mice subjected to IRI surgery were randomly divided into the following 5 groups: an IRI group, an IRI+low-dose ACT004 (12.5 mg/kg·d) group, an IRI+medium-dose ACT004 (25 mg/kg·d) group, an IRI+high-dose ACT004 (50 mg/kg·d) group, and a sham group, with 6 mice in each group. Starting from day 4 after the surgery, intragastric administration was performed. The sham group and the IRI groups were given an equal volume of normal saline as a control treatment. On day 10 after the surgery, the right kidney was removed, and on day 11 day after the surgery, the left kidney tissues were collected.
# (§2) According to the results of the preliminary experiment, the medium dose of ACT004 for mice was 25 mg/kg·d. Therefore, low-dose (12.5 mg/kg·d), medium-dose (25 mg/kg·d) and high-dose (50 mg/kg·d) groups were set. ACT004 was prepared into a solution using normal saline, and intragastrically administered once daily starting on day 4 after the surgery for a duration of 1 week. Mice in the sham, UUO and IRI groups were subjected to intragastric administration with an equal amount of normal saline for a duration of 1 week.
# (§3) After 1 week of intragastric administration, kidney tissues were collected as follows: Anesthesia was conducted using single intraperitoneal injection of tribromoethanol at a concentration of 200 mg/kg. Blood was collected by enucleation, and serum was separated and stored at −20° C. or −70° C. An abdominal incision was made, and sterile gauze was used to move aside abdominal organs. Cold PBS was perfused through the heart until the organs turned white. Kidney tissues were then collected. The entire left kidney was weighed, then bisected along the median sagittal plane, and washed thoroughly with PBS, and the capsule was removed. The tissue was then fixed in 10% neutral formaldehyde buffer for subsequent pathological examination.
# (§4) 2.2.1.4.1 Renal pathology: Masson staining was used to observe the renal pathological structures and collagen fiber deposition.
# (§5) 2.2.1.4.2 Protein level detection: Ras GTPase superfamily member RALB, EMT-related index a-SMA, and fibrosis phenotype-related indexes Fibronectin and Collagen I.
# [2] = test system: unilateral ureteral obstruction (UUO) RF animal model; assay: Therapeutic effect of ACT004 in unilateral ureteral obstruction (UUO) renal fibrosis mouse model; type: in vivo; conditions: UUO mice
# Experimental: as §1
# Method for constructing UUO model: Under anesthesia with intraperitoneal injection of tribromoethanol, the surgical area for abdominal midline incision was shaved and disinfected. After making the abdominal midline incision, the left ureter was located, and the upper segment of the ureter was isolated. A complete ureteral obstruction was induced by double ligation using 4-0 silk sutures (UUO group). For mice in the sham group, the ureter was similarly exposed and isolated, but no ligation was performed. Layered suturing of the abdominal incision was performed, followed by disinfection with iodophor. Mice subjected to UUO surgery were randomly divided into the following 5 groups: a UUO group, a UUO+low-dose ACT004 (12.5 mg/kg·d) group, a UUO+medium-dose ACT004 (25 mg/kg·d) group, a UUO+high-dose ACT004 (50 mg/kg·d) group, and a sham group, with 6 mice in each group. Starting from day 4 after the surgery, intragastric administration was performed. The sham group and the UUO groups were given an equal volume of normal saline as a control treatment. On day 11 after the surgery, the left kidney tissues were collected.
# as §2, §3, §4, §5
# [3] = test system: renal tubular epithelial cells (NRK); assay: Effect of ACT004 on TGF-β1-induced EMT in renal tubular epithelial cells; type: cell-based, mouse
# Experimental: The immortalized mouse-derived renal tubular epithelial cell line was provided by the Professor Nie Xiaoli's research team at the School of Traditional Chinese Medicine, Southern Medical University.
# The addition of TGF-β1 was accompanied by the administration of different concentrations of ACT004 intervention (2.5 μM, 5 μM, and 10 μM). The cells were divided into the following 6 groups: a blank control group, a blank control+ACT004 (5 μM) group, a TGF-β1 model group, and groups for TGF-β1+ different concentrations of ACT004 intervention (2.5 μM, 5 μM, and 10 µM).
# Protein level detection: Ras GTPase superfamily member RALB, EMT-related index α-SMA, and fibrosis phenotype-related indexes Fibronectin and Collagen I.
# [4] = ACT004 12.5, 25, 50 mg/kg·d intragastric once daily from day 4 for 1 week, left kidney day 11, FIG. 1A
# [5] = ACT004 intragastric 1 week, FIG. 1B
# [6] = ACT004 intragastric 1 week, FIG. 1C, statistically significant (p<0.05)
# [7] = ACT004 treatment groups, FIG. 3A
smiles,measurement,setting,value
"C/C1=C\[C@H]2OC(=O)[C@H](CN3CCN(C)CC3)[C@@H]2CC[C@]2(C)O[C@H]2CCC2=C[C@H](C1)OC2=O [ACT004, (1aS,4Z,7S,9E,10aS,13S,13aS,15aS)-9,15a-dimethyl-13-((4-methylpiperazin-1-yl)methyl)-1a,2,3,8,10a,13,13a,14,15,15a-decahydro-5H-4,7-(metheno) furo [2,3-f]oxireno [2,3-j][1]oxacyclopentadecine-5, 12 (7H)-dione fumarate]","Masson staining: renal interstitial expansion, extracellular matrix deposition, increased collagen fibers, inflammatory cell infiltration",[1]; [4],significantly reduced
same,"Immunohistochemical staining: expression of Fibronectin, Collagen I, and α-SMA in kidney tissue",[1]; [5],inhibitory effect
same,"Western blot: protein expression levels of Fibronectin, Collagen I, and α-SMA in kidney tissue",[1]; [6],inhibit the progression of RF
same,"Western blot: expression levels of p-Smad2, p-Smad3, p-Stat3, and p-NFκB in kidney tissues","[1]; ACT004 treatment groups, FIG. 2B",significantly reduced
same,Western blot: expression level of RALB in kidney tissues,[1]; [7],significantly reduced
same,"Masson staining: renal interstitial expansion, extracellular matrix deposition, increased collagen fibers, inflammatory cell infiltration",[2]; [4],significantly reduced
same,"Immunohistochemical staining: expression of Fibronectin, Collagen I, and α-SMA in kidney tissue",[2]; [5],inhibitory effect
same,"Western blot: protein expression levels of Fibronectin, Collagen I, and α-SMA in kidney tissue",[2]; [6],inhibit the progression of RF
same,"Western blot: expression levels of p-Smad2, p-Smad3, p-Stat3, and p-NFκB in kidney tissues","[2]; ACT004 treatment groups, FIG. 2A",significantly reduced
same,Western blot: expression level of RALB in kidney tissues,[2]; [7],significantly reduced
same,"Western blot: protein expression levels of Fibronectin, Collagen I, and α-SMA in TGFβ1-induced renal tubular epithelial cells","[3]; TGF-β1 10 ng/uL, 48 h, ACT004 2.5, 5, 10 μM, FIG. 1D, statistically significant (p<0.05)",inhibit the progression of RF
same,"Western blot: expression levels of p-Smad2, p-Smad3, p-Stat3, and p-NFκB in renal tubular epithelial cells induced by TGF-β1","[3]; different concentrations of ACT004, TGF-β1 induction for 1 h, FIG. 2C, statistically significant",reduced
